Data from paper PMC6272155, “Plasmin Regulation through Allosteric, Sulfated, Small Molecules” (Molecules, 2015).
Entries after “also recorded” stand apart in the source; their conditions may differ. Read-outs that look alike come from different tables or passages of the source.

Assays:
Format in all cases: biochemical
human plasmin = molecular target: T1, human plasmin (Homo sapiens, UniProt P00747); test: Michaelis-Menten kinetics of Spectrozyme PL hydrolysis by human plasmin in presence of inhibitor; conditions: for mechanism of plasmin inhibition: Michaelis-Menten kinetics, pH 7.4, 37 °C
T1 construct: purchased Haematologic Technologies (Essex Junction, VT, USA)
Procedure: The initial rate of Spectrozyme PL hydrolysis by human plasmin (20 nM) was monitored from the linear increase in absorbance at 405 nm corresponding to less than 10% consumption of the substrate. […] The data were fitted by Michaelis-Menten Equation (2) to determine KM,app and VMAX: (2) V= VMAX [S]/KM+ [S] […]
Michaelis-Menten kinetics of Spectrozyme PL hydrolysis by plasmin in the presence of […]
The initial rate of Spectrozyme PL hydrolysis by human plasmin (20 nM) was monitored from the linear increase in absorbance at 405 nm corresponding to less than 10% consumption of the substrate. The initial rate was measured as a function of various concentrations of the substrate (0–400 μM) […]
50 mM Tris-HCl buffer, pH 7.4, 150 mM NaCl at 37 °C. The data were fitted by Michaelis-Menten Equation (2) to determine KM,app and VMAX. […]

thrombin = thrombin (Homo sapiens, UniProt P00734); test: Direct inhibition of thrombin, chromogenic substrate (Spectrozyme TH) hydrolysis assay; conditions: pH 7.4, 37 °C; read-out: IC50 against thrombin
Procedure: (§1) The rationale behind targeting an allosteric site on plasmin was to achieve inhibition specificity over the closely related serine proteases. In contrast to active sites, allosteric sites are not as highly conserved and therefore present a powerful opportunity for discovering a selective modulator of enzyme function. […] Using appropriate small peptide-based chromogenic substrates, the fractional residual thrombin and factor Xa activities were measured under the physiological condition of pH 7.4 and 37 °C.
(§2) Briefly, to each well of a 96-well microplate containing 185 μL of 20–50 mM Tris-HCl buffer, pH 7.4, containing 100–150 mM NaCl, 0.1% PEG8000 and 0.02% Tween80 at either 25 °C (thrombin) or 37 °C (factor Xa) was added 5 μL of 10–20 mM inhibitor (or vehicle) and 5 μL of the enzyme. The final concentrations of the enzymes were 6 nM (thrombin) and 1.09 nM (factor Xa). After 10 min incubation, 5 μL 1.0 mM Spectrozyme TH or 2.5 mM Spectrozyme FXa, was rapidly added and the residual enzyme activity was measured from the initial rate of increase in A405. Relative residual enzyme activity (Y, activity in the presence of inhibitor to that in its absence) as a function of the concentration of inhibitor was measured.

human Lys-plasmin = molecular target: T2, human Lys-plasmin (Homo sapiens, UniProt P00747); test: Direct inhibition of human Lys-plasmin, chromogenic substrate (Spectrozyme PL) hydrolysis assay; conditions: for IC50: human plasmin 20 nM, 50 mM Tris-HCl pH 7.4, 150 mM NaCl, 37 °C, Spectrozyme PL
T2 construct: purchased Haematologic Technologies (Essex Junction, VT, USA)
Procedure: Important to emphasize here that the potency of NSGM-based inhibitors was evaluated by measuring their IC50's (X-axis), whereas the efficacy was assessed by measuring the overall change in residual plasmin activity (%) (ΔY = YM − Y0) (Y-axis).
Direct inhibition of human Lys-plasmin was measured using a chromogenic substrate hydrolysis assay on a microplate reader (FlexStation III, Molecular Devices, Sunnyvale, CA, USA), as reported earlier. Briefly, to each well of a 96-well microplate containing 85 µL of 50 mM Tris-HCl buffer, pH 7.4, containing 150 mM NaCl, 0.1% PEG8000, and 0.02% Tween80 at 37 °C was added 5 µL potential NSGM-based inhibitor (20–100 mM aqueous solution) (or vehicle alone) and 5 µL enzyme. The final concentration of the enzyme was 20 nM. After 5 min incubation, 5 µL of 1 mM Spectrozyme PL was rapidly added and the residual enzyme activity was measured from the initial rate of increase in A405. Relative residual enzyme activity (Y) as a function of the concentration of sulfated molecule was fitted using logistic equation 1 to obtain the potency (IC50), efficacy (ΔY) and Hill slope (HS) of inhibition. In this equation, YM and Y0 are the maximal and minimal values of Y: (1) Y = Y0+YM−Y0/1+10^(log[Inhibitor]0 − logIC50) ×HS […]
In this equation, Y is the ratio of residual plasmin activity in the presence of inhibitor to that in its absence (fractional residual activity). YM and Y0 are the maximum and minimum possible values of the fractional residual proteinase activity. The difference between these two values is used to evaluate the inhibitor’s efficacy to reduce the residual enzyme activity under the assay condition.
Direct inhibition of human plasmin by sulfated small molecules. Direct inhibition of plasmin was measured using a chromogenic substrate hydrolysis assay on a microplate reader (FlexStation III, Molecular Devices), as reported earlier. Briefly, to each well of a 96-well microplate containing […]
Tween80 at 37 °C was added 5 µL potential inhibitor (or vehicle alone) and 5 µL enzyme. The final concentration of the enzyme was 20 nM. After 5 min incubation, 5 µL of 1 mM Spectrozyme PL was rapidly added and the residual enzyme activity was measured from the initial rate of increase in A405.
Relative residual enzyme activity (Y, activity in the presence of inhibitor to that in its absence) as a function of the concentration of SPGG derivative was fitted using logistic Equation (1) to obtain the potency (IC50), efficacy (ΔY) and Hill slope (HS) of inhibition. In this equation, YM and Y0 are the maximal and minimal values of Y.

factor Xa = factor Xa (Homo sapiens, UniProt P00742); test: Direct inhibition of factor Xa, chromogenic substrate (Spectrozyme FXa) hydrolysis assay; conditions: for IC50: pH 7.4, 37 °C, read-out: IC50 against factor Xa
Procedure: as §1, §2

[1] = pH 7.4, read-out: ΔY% (efficacy, YM − Y0), logistic fit, pH 7.4, 37 °C

T1 sequence (P00747 581-810 limits assumed): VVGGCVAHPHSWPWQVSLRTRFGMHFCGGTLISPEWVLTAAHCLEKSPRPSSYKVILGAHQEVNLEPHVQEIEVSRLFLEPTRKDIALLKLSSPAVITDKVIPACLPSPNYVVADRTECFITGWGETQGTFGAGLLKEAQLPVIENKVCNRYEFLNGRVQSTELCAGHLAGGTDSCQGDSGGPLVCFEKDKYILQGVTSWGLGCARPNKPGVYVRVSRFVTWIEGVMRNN
T1 sequence (P00747 97-580 partner limits assumed): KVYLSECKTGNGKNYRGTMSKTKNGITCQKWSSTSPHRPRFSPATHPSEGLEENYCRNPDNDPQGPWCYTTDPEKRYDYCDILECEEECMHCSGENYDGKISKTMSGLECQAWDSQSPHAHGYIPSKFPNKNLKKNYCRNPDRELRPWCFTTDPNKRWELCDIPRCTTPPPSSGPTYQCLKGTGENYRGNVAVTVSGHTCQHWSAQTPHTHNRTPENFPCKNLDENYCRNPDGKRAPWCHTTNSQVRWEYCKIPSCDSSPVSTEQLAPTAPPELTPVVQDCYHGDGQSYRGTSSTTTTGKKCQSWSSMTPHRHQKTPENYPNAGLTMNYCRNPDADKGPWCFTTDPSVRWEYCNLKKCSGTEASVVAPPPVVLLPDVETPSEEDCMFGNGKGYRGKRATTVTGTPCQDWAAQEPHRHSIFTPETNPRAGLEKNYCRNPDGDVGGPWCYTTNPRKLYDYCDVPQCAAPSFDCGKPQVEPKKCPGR
T2 sequence (P00747 581-810 limits assumed): as the sequence (P00747 581-810 limits assumed) above
T2 sequence (P00747 97-580 partner limits assumed): as the sequence (P00747 97-580 partner limits assumed) above
Sequence of factor Xa (P00742 235-488 limits assumed): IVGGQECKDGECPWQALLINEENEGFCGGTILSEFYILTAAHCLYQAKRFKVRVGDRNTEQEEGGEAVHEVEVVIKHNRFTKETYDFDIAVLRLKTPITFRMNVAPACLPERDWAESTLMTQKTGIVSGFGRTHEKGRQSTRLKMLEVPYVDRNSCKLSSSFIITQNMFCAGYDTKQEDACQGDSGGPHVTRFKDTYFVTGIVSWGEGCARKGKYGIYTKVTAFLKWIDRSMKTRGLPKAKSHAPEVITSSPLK
Sequence of factor Xa (P00742 41-179 partner limits assumed): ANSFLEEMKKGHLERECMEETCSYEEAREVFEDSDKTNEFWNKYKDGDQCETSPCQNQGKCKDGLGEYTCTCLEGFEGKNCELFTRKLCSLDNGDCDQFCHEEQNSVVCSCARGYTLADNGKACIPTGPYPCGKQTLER

SMILES	mechanism of plasmin inhibition (human plasmin)	VMAX of Spectrozyme PL hydrolysis (human plasmin; inhibitor 150 μM) [mAU/min]	IC50 (thrombin) [µM]	IC50 (human Lys-plasmin) [µM]	HS (Hill slope) (human Lys-plasmin; logistic fit, pH 7.4, 37 °C)	selectivity index for plasmin over factor Xa (factor Xa)	IC50 (factor Xa) [µM]	Emax (human Lys-plasmin; [1]) [%]	other results
O=c1c(OS(=O)(=O)O)c(-c2ccc(OS(=O)(=O)O)c(OS(=O)(=O)O)c2)oc2cc(OS(=O)(=O)O)cc(OCCCCOc3cc(OS(=O)(=O)O)cc4oc(-c5ccc(OS(=O)(=O)O)c(OS(=O)(=O)O)c5)c(OS(=O)(=O)O)c(=O)c34)c12 [compound 52, 5,5'-(Butane-1,4-diylbis(oxy))bis(2-(3,4-O,O-disulfonato-phenyl)-3,7-O,O-disulfonato-4H-chromen-4-one)]	uncompetitive inhibition	26.4 ± 0.8	> 500	76 ± 12	1.0 ± 0.2	about 5 fold	> 250	–	decrease in KM relative to absence of inhibitor (human plasmin; inhibitor 0 to 150 μM): approximately 3.5 fold; VMAX of Spectrozyme PL hydrolysis (human plasmin; inhibitor 15 μM): 52.9 ± 2.9 mAU/min; VMAX of Spectrozyme PL hydrolysis (human plasmin; inhibitor 30 μM): 37.0 ± 1.5 mAU/min; VMAX of Spectrozyme PL hydrolysis (human plasmin; inhibitor 75 μM): 34.8 ± 1.5 mAU/min; Emax (human Lys-plasmin; pH 7.4, logistic fit, pH 7.4, 37 °C, read-out: ΔY% (efficacy, YM − Y0)): 72%
O=c1c(OS(=O)(=O)O)c(-c2ccc(OS(=O)(=O)O)c(OS(=O)(=O)O)c2)oc2cc(OS(=O)(=O)O)cc(OCc3cn(CCCCCCCn4c(-c5ccc(OS(=O)(=O)O)cc5)nc5ccccc5c4=O)nn3)c12 [compound 31, 3-(8-(4-((2-(3,4-O,O-Disulfonato-phenyl)-3,7-O,O-disulfonato-4-oxo-4H-chromen-5-yloxy)methyl)-1H-1,2,3-triazol-1-yl)heptyl)-2-(4-O-sulfonato-phenyl)quinazolin-4(3H)-one]	–	–	> 500	56 ± 2	3.2 ± 0.8	about 5 fold	> 250	87	ΔY% (efficacy, YM − Y0) (human Lys-plasmin; logistic fit, pH 7.4, 37 °C): 87 ± 4%
O=c1c(OS(=O)(=O)O)c(-c2ccc(OS(=O)(=O)O)c(OS(=O)(=O)O)c2)oc2cc(OS(=O)(=O)O)cc(OCc3cn(CCCCCCCCn4c(-c5ccc(OS(=O)(=O)O)cc5)nc5ccccc5c4=O)nn3)c12 [compound 32, 3-(8-(4-((2-(3,4-O,O-Disulfonato-phenyl)-3,7-O,O-disulfonato-4-oxo-4H-chromen-5-yloxy)methyl)-1H-1,2,3-triazol-1-yl)octyl)-2-(4-O-sulfonato-phenyl)quinazolin-4(3H)-one]	noncompetitive inhibition; also recorded: allosteric inhibitor	20.7 ± 1.1	> 500	45 ± 2	2.3 ± 0.7	about 5 fold	> 250	105	decrease in VMAX (human plasmin; inhibitor 0 to 250 μM): 5.5 fold; VMAX of Spectrozyme PL hydrolysis (human plasmin; inhibitor 1 μM): 65.8 ± 2.1 mAU/min; VMAX of Spectrozyme PL hydrolysis (human plasmin; inhibitor 10 μM): 56.4 ± 2.3 mAU/min; VMAX of Spectrozyme PL hydrolysis (human plasmin; inhibitor 50 μM): 41.4 ± 1.6 mAU/min; VMAX of Spectrozyme PL hydrolysis (human plasmin; inhibitor 250 μM): 12.5 ± 1.3 mAU/min
O=c1c2ccccc2nc(-c2ccc(OS(=O)(=O)O)cc2)n1CCCCCCCn1cc(Cn2c(-c3ccc(OS(=O)(=O)O)cc3)nc3ccccc3c2=O)nn1 [compound 42]	–	–	–	161 ± 24	1.0 ± 0.2	–	–	–	Emax (human Lys-plasmin; logistic fit, pH 7.4, 37 °C, read-out: ΔY% (efficacy, YM − Y0)): 92 ± 4%; decrease in inhibition potency relative to 31 and 32, respectively (human Lys-plasmin; tetrasulfated flavonoid replaced by para-sulfated quinazolinone): 3–4 fold
O=c1c(OS(=O)(=O)O)c(-c2ccc(OS(=O)(=O)O)c(OS(=O)(=O)O)c2)oc2cc(OS(=O)(=O)O)cc(OCCCOc3cc(OS(=O)(=O)O)cc4oc(-c5ccc(OS(=O)(=O)O)c(OS(=O)(=O)O)c5)c(OS(=O)(=O)O)c(=O)c34)c12 [compound 51]	–	–	–	~2830	–	–	–	–	loss in potency relative to 4-atom linker flavonoid homodimers (52, 54) (human Lys-plasmin): 37 fold
O=c1c(OS(=O)(=O)O)c(-c2ccc(OS(=O)(=O)O)c(OS(=O)(=O)O)c2)oc2cc(OS(=O)(=O)O)cc(OCc3cn(CCCCCCCCCCn4c(-c5ccc(OS(=O)(=O)O)cc5)nc5ccccc5c4=O)nn3)c12 [compound 34]	–	–	–	130 ± 6	3.9 ± 1.0	–	–	83 ± 5	diminished potency relative to 32 (human Lys-plasmin; 13-atom and 14-atom linkers vs 12-atom linker of 32): ~ 3 fold
